Source: patent US20070009377A1, “Methods for Reducing Pathogens in Biological Samples” (priority 2005, published 2007)

Experiments:
[1] = test system: apheresis platelet concentrates; experiment: In vitro cell quality tests of stored platelets after riboflavin + UV light treatment (clinical study one); format: cell-based, human
Description: The platelet concentrate with a volume of 250 mL was transferred into a 3-litre polyolefin bag (Sengewald, Rohrdorf, Germany), followed by addition of 27 mL sterile 500 μM riboflavin so that the final concentration in the product was ca. 50 μM. The platelet products were then exposed to UV light (phosphor 265-370 nm) at either a medium dose level (7.2 J/ml) or high dose level (12.4 J/ml). Total illumination time varied from approximately 5-10 minutes with agitation at a temperature of 25-30° C. After treatment, platelet products were transferred into a citrated polyvinyl chloride ELP™ bag (Gambro BCT, Lakewood, Colo.). The treated and control PCs were stored for an additional 5 days at 20-24° C. under standard blood bank conditions. Control platelet products were prepared in the same manner as the treated counterparts except no riboflavin was added and no UV light treatment was performed.
Platelet samples were taken for lab tests at day 0, 3 and 5 of platelet storage using aseptic technique and analysis was completed within 2 hours. The in vitro cell quality tests for platelet count, swirl score, pH, pO2, pCO2, lactate and glucose were performed per standard operating procedures (SOPs) of the trial site. Hypotonic shock response (HSR) and P-selectin expression were measured as described by Ruane et al. (Ruane P H, Edrich R, Gampp D et al. Photochemical inactivation of selected viruses and bacteria in platelet concentrates using riboflavin and light. Transfusion 2004;44:877-85.)
Following Ethical Committee approval and notification of the MCC, the competent authority of South Africa, a total of 18 platelet products were collected with yields ranging from 2.9 to 3.8×10^11 platelets using standard Trima apheresis procedures. Products were treated in a polyolefin container, Sengewald bag, with UV light at either a medium UV dose (7.2 J/ml; N=5) or a high UV dose (12.4 J/ml; N=6) in the presence of 50 μM riboflavin on the day of collection. An additional seven products served as controls which were not treated with UV light. All treated and control PC products were transferred to and stored in ELP™ bags under normal blood bank conditions for 5 days post-apheresis collection. At day 0 (pre-treatment), day 3 and day 5 of storage, the samples from all PC products were measured for pH, pO2, pCO2, lactate and glucose concentrations, P-selectin, HSR and platelet swirl. […] UV treatment also accelerated an increase in P-selectin expression and decreases in HSR and swirl score during platelet storage. It appears that the severity of these changes during platelet storage were in direct proportion to the levels of UV dose applied.

platelets = experiment: In vivo radiolabeled platelet recovery after infusion into the autologous donor (clinical study one); set-up: species or system human; conditions: after 5-day storage
Description: At the end of the 5-day storage period, a small aliquot of the platelets was radiolabeled with ^111Indium, according to the study site's SOP (in agreement with local and international standards for radiolabeling of human platelets). The labeling procedure was performed after formation of ^111In-tropolonate through mixing of ^111Indium chloride (Amersham) with tropolone. If the pH of the platelet samples to be labeled was>6.5, it was brought down to 6.5 to prevent irreversible aggregation of platelets during pelleting.
After washing and resuspension in plasma, a radiolabeled aliquot was infused into the autologous donor. The total radioactivity that was given to a subject in this study was less than 8 MBq. Blood samples for radioactivity counting were collected 15 minutes, 1 hour and 2-3 hours after infusion, twice (AM and PM) on day 1 post-infusion and once on days 2-6 post-infusion. After correcting for 2-hour radioelution as described by Holme, et al., (Holme S, Heaton A, Roodt J. Concurrent label method with 111In and 51Cr allows accurate evaluation of platelet viability of stored platelet concentrates. Br J Haematol 1993;84:717-23.) in vivo radiolabeled platelet recovery and survival values were calculated by the COST computer program using the multiple-hit model. […]

`Cc1cc2nc3c(=O)[nH]c(=O)nc-3n(C[C@H](O)[C@H](O)[C@H](O)CO)c2cc1C` [riboflavin, 7,8-dimethyl-10-ribityl isoalloxazine] was tested, and the pO2 ([1]; 50 μM riboflavin + high UV dose (12.4 J/ml), Day 0 (pre-treatment)) was 95 +/− 19 mmHg, the pO2 ([1]; 50 μM riboflavin + high UV dose (12.4 J/ml), Day 3) was 83 +/− 22 mmHg and the pO2 ([1]; 50 μM riboflavin + high UV dose (12.4 J/ml), Day 5) was 88 +/− 30 mmHg. The pO2 ([1]; 50 μM riboflavin + medium UV dose (7.2 J/ml), Day 0 (pre-treatment)) was 60 +/− 15 mmHg, the pO2 ([1]; 50 μM riboflavin + medium UV dose (7.2 J/ml), Day 3) was 82 +/− 24 mmHg and the pO2 ([1]; 50 μM riboflavin + medium UV dose (7.2 J/ml), Day 5) was 68 +/− 17 mmHg. For the same molecule, the “average in vivo recovery of infused platelets” value (platelets; 50 μM riboflavin + high dose of UV light (12.4 J/ml)) was 14% and the “average in vivo recovery of infused platelets” value (platelets; 50 μM riboflavin + medium dose of UV light (7.2 J/ml)) was 30%.
